Series [1] can be described thus: Solubility was determined.
The species entered for series [2] is Homo sapiens. As to the kind of experiment: In vitro inhibition of TNF-alpha production was determined by using LPS-stimulated human whole blood assay (WBA). In kind it is functional.
For series [3], the target named is Matrix metalloproteinase-9 (Homo sapiens, UniProt P14780). As to the kind of experiment: Inhibitory activity against matrix metalloprotease-9 (MMP-9).
Series [4] has as its target 72 kDa type IV collagenase (Homo sapiens, UniProt P08253). As to the kind of experiment: Inhibitory activity against matrix metalloprotease-2 (MMP-2).
Series [5] concerns the target T1, Interstitial collagenase (Homo sapiens, UniProt P03956).
T1 sequence (P03956 whole entry): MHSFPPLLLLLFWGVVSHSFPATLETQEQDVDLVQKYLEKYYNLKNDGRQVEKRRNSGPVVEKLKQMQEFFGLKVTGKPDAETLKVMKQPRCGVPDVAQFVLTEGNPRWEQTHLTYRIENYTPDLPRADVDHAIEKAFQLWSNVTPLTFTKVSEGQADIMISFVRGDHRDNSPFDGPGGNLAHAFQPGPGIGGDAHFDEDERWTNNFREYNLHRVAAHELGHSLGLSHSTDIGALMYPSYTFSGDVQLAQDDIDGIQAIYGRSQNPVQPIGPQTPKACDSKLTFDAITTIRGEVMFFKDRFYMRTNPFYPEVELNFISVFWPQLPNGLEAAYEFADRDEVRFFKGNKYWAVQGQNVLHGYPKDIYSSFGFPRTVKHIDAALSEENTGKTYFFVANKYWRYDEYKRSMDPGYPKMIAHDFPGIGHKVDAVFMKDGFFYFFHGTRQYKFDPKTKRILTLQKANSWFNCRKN
As to the kind of experiment: Inhibitory activity against matrix metalloprotease-1 (MMP-1).

Series [6] concerns the target Disintegrin and metalloproteinase domain-containing protein 17 (Sus scrofa, UniProt O77636). As to the kind of experiment: In vitro binding affinity against porcine TACE.

The results in this text go back to ChEMBL document CHEMBL1144985, “Rational design, synthesis and structure-activity relationships of a cyclic succinate series of TNF-alpha converting enzyme inhibitors. Part 2: lead optimization” (Bioorg Med Chem Lett, 2003).

Each structure is given as a SMILES string.

72 kDa type IV collagenase, sequence (P08253 whole entry): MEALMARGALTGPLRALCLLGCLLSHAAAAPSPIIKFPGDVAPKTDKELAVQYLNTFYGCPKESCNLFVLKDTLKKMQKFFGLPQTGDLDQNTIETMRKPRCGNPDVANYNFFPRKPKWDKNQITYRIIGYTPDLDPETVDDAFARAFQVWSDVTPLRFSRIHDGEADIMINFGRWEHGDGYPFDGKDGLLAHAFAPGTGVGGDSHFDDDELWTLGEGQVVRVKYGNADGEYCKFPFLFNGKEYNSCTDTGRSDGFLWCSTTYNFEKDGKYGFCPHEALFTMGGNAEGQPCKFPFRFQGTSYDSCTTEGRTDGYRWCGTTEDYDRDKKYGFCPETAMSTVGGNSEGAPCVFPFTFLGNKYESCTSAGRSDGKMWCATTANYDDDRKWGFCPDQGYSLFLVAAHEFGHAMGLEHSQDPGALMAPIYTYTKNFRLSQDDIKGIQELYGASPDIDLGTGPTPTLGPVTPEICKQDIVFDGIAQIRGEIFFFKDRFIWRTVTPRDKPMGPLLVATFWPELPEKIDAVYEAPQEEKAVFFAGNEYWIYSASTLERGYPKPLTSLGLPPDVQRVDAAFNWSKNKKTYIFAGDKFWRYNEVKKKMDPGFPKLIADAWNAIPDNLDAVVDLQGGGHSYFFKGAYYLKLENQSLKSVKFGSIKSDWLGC
Disintegrin and metalloproteinase domain-containing protein 17, sequence (O77636 whole entry, the tested form may be a part): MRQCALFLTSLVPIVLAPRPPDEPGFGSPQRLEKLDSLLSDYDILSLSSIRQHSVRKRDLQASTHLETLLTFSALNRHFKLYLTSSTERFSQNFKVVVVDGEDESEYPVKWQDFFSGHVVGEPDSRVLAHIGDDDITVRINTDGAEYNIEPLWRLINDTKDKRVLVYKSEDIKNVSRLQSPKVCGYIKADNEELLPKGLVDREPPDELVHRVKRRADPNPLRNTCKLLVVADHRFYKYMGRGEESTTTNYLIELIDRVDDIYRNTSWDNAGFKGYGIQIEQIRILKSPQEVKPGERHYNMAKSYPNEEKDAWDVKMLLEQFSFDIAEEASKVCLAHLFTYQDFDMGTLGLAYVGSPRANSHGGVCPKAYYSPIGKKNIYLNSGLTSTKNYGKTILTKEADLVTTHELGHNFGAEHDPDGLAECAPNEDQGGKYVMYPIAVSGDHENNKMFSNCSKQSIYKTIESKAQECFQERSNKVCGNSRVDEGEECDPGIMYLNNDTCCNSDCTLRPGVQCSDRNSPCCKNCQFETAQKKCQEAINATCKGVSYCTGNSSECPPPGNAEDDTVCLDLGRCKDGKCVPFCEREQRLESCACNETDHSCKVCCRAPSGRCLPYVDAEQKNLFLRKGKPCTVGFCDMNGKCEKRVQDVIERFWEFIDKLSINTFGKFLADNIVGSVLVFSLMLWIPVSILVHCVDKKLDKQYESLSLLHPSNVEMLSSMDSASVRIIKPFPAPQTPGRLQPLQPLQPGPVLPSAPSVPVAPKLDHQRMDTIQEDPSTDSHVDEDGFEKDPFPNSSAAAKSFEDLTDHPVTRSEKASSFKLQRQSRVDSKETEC
Matrix metalloproteinase-9, sequence (P14780 whole entry): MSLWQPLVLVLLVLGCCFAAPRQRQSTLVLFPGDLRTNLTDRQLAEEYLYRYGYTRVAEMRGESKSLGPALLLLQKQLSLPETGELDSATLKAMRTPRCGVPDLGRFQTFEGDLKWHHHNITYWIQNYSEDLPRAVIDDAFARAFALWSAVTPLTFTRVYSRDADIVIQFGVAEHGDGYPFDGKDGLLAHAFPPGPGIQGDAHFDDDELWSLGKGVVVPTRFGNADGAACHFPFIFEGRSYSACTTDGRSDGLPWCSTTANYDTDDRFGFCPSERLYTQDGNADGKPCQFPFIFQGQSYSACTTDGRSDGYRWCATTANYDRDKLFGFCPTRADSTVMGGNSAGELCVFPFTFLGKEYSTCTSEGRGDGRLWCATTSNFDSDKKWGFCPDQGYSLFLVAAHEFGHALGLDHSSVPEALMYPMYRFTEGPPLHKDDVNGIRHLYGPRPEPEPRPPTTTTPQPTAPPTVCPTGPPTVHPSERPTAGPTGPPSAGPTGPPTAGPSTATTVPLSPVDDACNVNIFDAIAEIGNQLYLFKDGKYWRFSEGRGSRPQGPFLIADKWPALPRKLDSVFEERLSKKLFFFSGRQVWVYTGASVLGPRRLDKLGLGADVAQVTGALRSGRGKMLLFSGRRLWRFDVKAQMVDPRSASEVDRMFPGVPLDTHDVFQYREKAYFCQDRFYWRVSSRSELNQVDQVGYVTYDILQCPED

One may read the solubility as the dissolved amount per volume that the medium holds. The low end stands for little dissolved substance, the high end for much dissolved substance. A word on the IC50: it is the concentration at which inhibition is half-maximal. A higher IC50 goes with a need for much substance. As usually defined, the Ki is the dissociation constant of the complex between target and ligand, obtained from inhibition or displacement. In turn, `Cc1cc(COc2ccc(NC(=O)[C@H]3CCN(C(C)C)C[C@@H]3C(=O)NO)cc2)c2ccccc2n1` registered a solubility in series [1] of more than 10000 µg/mL. The IC50 in series [2] amounted to 1.2 µM; in series [6], 0.0012 µM. The Ki in series [3] is more than 2.13 µM; in series [4] it was more than 3.33 µM; in series [5], more than 4.95 µM.

As for `Cc1cc(COc2ccc(NC(=O)[C@H]3CCN(C4CCC4)C[C@@H]3C(=O)NO)cc2)c2ccccc2n1`, in series [1], the solubility is more than 10000 µg/mL. For the same compound, the IC50 was determined as 1.1 µM in series [2] and 0.0016 µM in series [6]. Further, the Ki in series [3] is more than 2.13 µM; in series [4], more than 3.33 µM; in series [5] it was more than 4.95 µM.

In series [1], `Cc1cc(COc2ccc(NC(=O)[C@H]3CCNC[C@@H]3C(=O)NO)cc2)c2ccccc2n1` yielded a solubility of more than 10000 µg/mL. The IC50 came out at 4.3 µM in series [2] and 0.0015 µM in series [6]. The inhibition constant Ki in series [3] is more than 2.13 µM; in series [4] it was more than 3.33 µM; in series [5], more than 4.95 µM.

As for `Cc1cc(COc2ccc(NC(=O)[C@H]3CNCC[C@@H]3C(=O)NO)cc2)c2ccccc2n1`, in series [1], the solubility is more than 10000 µg/mL. Also, the half-inhibitory concentration (IC50) was determined as 0.53 µM in series [2] and 0.003 µM in series [6]. For the same compound, the results for the Ki in series [3], in series [4] and in series [5] were more than 2.13 µM, more than 3.33 µM and more than 4.95 µM, respectively.

As for `CC(=O)N1CC[C@H](C(=O)Nc2ccc(COc3ccnc4cc(C(F)(F)F)ccc34)cc2)[C@@H](C(=O)NO)C1`, the values for the IC50 in series [2] and in series [6] were 2.6 µM and 0.0032 µM, respectively. Also, the inhibition constant Ki in series [3] is more than 2.13 µM; in series [4] it was more than 3.33 µM; in series [5], more than 4.95 µM.

Regarding `Cc1cc(COc2ccc(NC(=O)[C@H]3NCCC[C@@H]3C(=O)NO)cc2)c2ccccc2n1`, the half-maximal inhibitory concentration (IC50) came out at 0.12 µM in series [2] and 0.001 µM in series [6]. Also, the Ki in series [3] is more than 2.13 µM; in series [4], more than 3.33 µM; in series [5], more than 4.95 µM.

As for `Cc1cc(COc2ccc(NC(=O)[C@H]3CCN(S(C)(=O)=O)C[C@@H]3C(=O)NO)cc2)c2ccccc2n1`, the IC50 in series [2] was found to be 1.36 µM; in series [6], 0.00048 µM. Further, the inhibition constant (Ki) in series [3] is 0.306 µM; in series [4], 0.656 µM; in series [5] it was more than 4.95 µM.

For the compound `O=C(NO)[C@H]1CN(C(=O)c2ccco2)CC[C@@H]1C(=O)Nc1ccc(COc2ccnc3ccccc23)cc1`, the IC50 is 0.7 µM in series [2] and 0.0008 µM in series [6]. Also, the values for the Ki in series [3], in series [4] and in series [5] were more than 2.13 µM, more than 3.33 µM and more than 4.95 µM, respectively.

For the compound `Cc1cc(COc2ccc(NC(=O)[C@H]3CCN(C(=O)OCc4cscn4)C[C@@H]3C(=O)NO)cc2)c2ccccc2n1`, the results for the IC50 in series [2] and in series [6] were 0.53 µM and less than 0.0003 µM, respectively. For the same compound, the values for the inhibition constant (Ki) in series [3], in series [4] and in series [5] were 0.296 µM, 0.476 µM and more than 4.95 µM, respectively.

As to `Cc1cc(COc2ccc(NC(=O)[C@H]3CCN(C(=O)OCc4nccs4)C[C@@H]3C(=O)NO)cc2)c2ccccc2n1`, the IC50 in series [2] was 0.45 µM; in series [6] it was less than 0.0003 µM. The results for the inhibition constant (Ki) in series [3], in series [4] and in series [5] were 0.768 µM, 1.54 µM and more than 4.95 µM, respectively.

As to `O=C(NO)[C@H]1CN(C(=O)C2CC2)CC[C@@H]1C(=O)Nc1ccc(OCc2ccnc3ccccc23)cc1`, the values for the half-inhibitory concentration (IC50) in series [2] and in series [6] were 1.3 µM and 0.001 µM, respectively. The Ki was more than 2.13 µM in series [3], more than 3.33 µM in series [4] and more than 4.95 µM in series [5].

`O=C(NO)[C@H]1CN(C(=O)C2CC2)CC[C@@H]1C(=O)Nc1ccc(Oc2ccnc3ccccc23)cc1`: the half-inhibitory concentration (IC50) in series [2] was more than 50 µM; in series [6], more than 1 µM. Further, the Ki in series [3] was more than 2.13 µM; in series [4] it was more than 3.33 µM; in series [5] it was more than 4.95 µM.

Consider `COC(=O)N1CC[C@H](C(=O)Nc2ccc(OCc3cc(C)nc4ccccc34)cc2)[C@@H](C(=O)NO)C1`, for which the concentration for half-maximal inhibition (IC50) turned out to be 0.57 µM in series [2] and 0.00028 µM in series [6]. Further, the Ki in series [3] was 0.767 µM; in series [4] it was 1.11 µM; in series [5], more than 4.95 µM.
